Like-named read-outs stand apart in the source and are kept apart here.

Data set [1] in a line: Measurement of concentrations of human 17βHSD type 5 inhibitor compounds in mouse tissues (plasma, prostate) after oral administration. Format: in vivo. The settings on record: male ICR mice, 2 hours after administration. The protocol: The concentrations in plasma and in prostate were measured after oral administration of a test substance. Male 8 to 15-week old ICR mice were used, and a solution or suspension obtained by adding 1 N NaOH solution and water in an equivalent amount to a test substance and stirring was used as an administration solution. The administration solution was administered orally once to mice, and after 2 hours, blood and a prostate were collected under ether anesthesia. The prostate was frozen and stored at −80° C. until measurement. The blood was centrifuged (3000 rpm, 15 min, 4° C.) after the addition of a minor amount of heparin, and the upper layer was collected as plasma and frozen and stored at −80° C. until measurement. 0.1 mL of the plasma was subjected to protein degeneration with 0.1 mL of acetonitrile and then centrifuged (15000 rpm, 7 min, 4° C.) to remove proteins and the supernatant thus obtained was used as an HPLC sample. The prostate was homogenized in a phosphate buffer solution (200 mM, pH 7.4, 0.5 mL), and then the whole volume was added to 3 mL of t-butyl methyl ether to perform extraction. The solvent was evaporated in a stream of nitrogen (15 min, 45° C.). The residue was resuspended in a Tris buffer solution (12.5 mM, pH 7.4, 0.3 mL) containing 2% BSA, and an equal volume of acetonitrile (0.3 mL) was added. Protein was removed as in the case of plasma and the supernatant was used as an HPLC measurement sample. Measurement was performed by an ordinary method using liquid chromatography (HPLC).
Column: STR ODS-II (registered trademark), particle size: 5 μm, inner diameter: 4.6 mm, length: 150 mm, joint type: Waters Mobile phase: 20 mM ammonium acetate:acetonitrile=7:3 or 17 mM ammonium acetate:acetonitrile=6:4 Flow rate: 1 mL/min Column temperature: 40° C. Injection volume: 50 μL

The next data set addresses T1, human 17βHSD type 5 (Homo sapiens, UniProt P42330).
T1 construct: A full-length cDNA encoding human 17βHSD type 5 used in the pharmacological test; made in house; host or cells: Escherichia coli BL21
T1 sequence (P42330 1-323): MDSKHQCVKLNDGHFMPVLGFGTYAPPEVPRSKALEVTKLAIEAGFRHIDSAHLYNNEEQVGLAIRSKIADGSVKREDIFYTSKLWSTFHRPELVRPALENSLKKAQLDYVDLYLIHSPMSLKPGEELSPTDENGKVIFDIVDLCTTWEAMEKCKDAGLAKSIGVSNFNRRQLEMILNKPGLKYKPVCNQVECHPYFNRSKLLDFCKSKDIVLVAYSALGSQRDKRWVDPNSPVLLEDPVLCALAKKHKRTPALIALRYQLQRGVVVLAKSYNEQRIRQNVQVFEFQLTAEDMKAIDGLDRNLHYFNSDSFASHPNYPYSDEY
Briefly: Measurement of enzyme activity of human 17βHSD type 5 (testosterone production from androstenedione, DELFIA). Type of data set: biochemical. The settings on record: for IC50: purified human 17βHSD type 5, androstenedione 300 nM, NADPH 200 μM, pH 6.0, room temperature 2 hours. The text has this: (§1) An excellent selective inhibitory activity against human 17βHSD type 5 of the compounds of the present invention was confirmed by a test method described below. Further, the test may be performed by referring to the details of test procedure described in Maniatis, T. et al., Molecular Cloning—A Laboratory Manual Cold Spring Harbor Laboratory, NY and the like (1982). In addition, a gene encoding human 17βHSD type5 and type3 described in 1 and 2 below, and human 17βHSD type5 and type3 may be obtained by the method described in Mol. Endocrinol, 1971-1984, 11(13) (1997).
A full-length cDNA encoding human 17βHSD type 5 used in the pharmacological test of the present invention was obtained by the PCR method using a cDNA derived from a human lung cancer-derived cell line, A549 cells as a template. The nucleotide sequence of the obtained cDNA was analyzed by the dideoxyterminator method, and the clone matched with the known human 17βHSD type 5 sequence (GenBank accession No. NM_003739) was selected. Escherichia coli BL21 was transformed with a plasmid containing the cDNA, cultured on a large scale, and the proteins were purified by using GSTrapFF column (Amersham) and PreScissionProtease (Amersham). The purification was performed in accordance with the instructions attached to the GSTrapFF column.
(§2) Enzyme activity was measured referring to Trevor M. Penning, et al., Biochem. J., 351, 67-77, (2000). Specifically, using a 100 mM potassium phosphate buffer (pH 6.0), (1) the enzyme purified in above 1 at a final concentration of 10 μg/mL, (2) androstenedione at a final concentration of 300 nM, (3) NADPH at a final concentration of 200 μM and (4) a test substance at a final concentration of 3 μM were mixed to react at room temperature for 2 hours, and then the amount of testosterone produced was measured using DELFIA (registered trademark) Testosterone Reagents R050-201 (PerkinElmer). The measurement was performed in accordance with the attached instructions. The amount of reduction of testosterone production in the presence of the compound was obtained as a relative value with respect to the amount of testosterone in the absence of the enzyme set at 0% and the amount of testosterone produced in the absence of the compound set at 100%. Then, IC50 values were calculated by the Logistic regression method.

The target of a further data set is T2, human 17βHSD type 3 (Homo sapiens, UniProt P37058).
T2 construct: A full-length cDNA encoding human 17βHSD type 3 used in the pharmacological test; made in house; host or cells: human fetus kidney-derived 293 cells (transfected; supernatant of disrupted cells, not purified)
T2 sequence (P37058 1-310): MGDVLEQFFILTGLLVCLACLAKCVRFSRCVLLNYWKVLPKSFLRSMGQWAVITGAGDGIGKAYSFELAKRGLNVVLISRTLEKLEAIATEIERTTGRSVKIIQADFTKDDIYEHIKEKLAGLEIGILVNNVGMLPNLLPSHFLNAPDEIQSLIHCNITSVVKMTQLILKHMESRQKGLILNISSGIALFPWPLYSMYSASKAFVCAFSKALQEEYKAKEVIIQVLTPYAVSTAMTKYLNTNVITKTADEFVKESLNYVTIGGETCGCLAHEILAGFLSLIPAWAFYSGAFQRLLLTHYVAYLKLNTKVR
The experiment in a line: Measurement of enzyme activity of human 17βHSD type 3 (testosterone production from androstenedione, DELFIA). Format: biochemical. The following applies: human 17βHSD type 3 (293 cell supernatant as enzyme source).
Source text: as §1
A full-length cDNA encoding human 17βHSD type 3 used in the pharmacological test of the present invention was obtained by the PCR method using a cDNA derived from human testis as a template. The nucleotide sequence of the obtained cDNA was analyzed by the dideoxyterminator method, and the clone matched with the known human 17βHSD type 3 sequence (GenBank accession No. BC034281) was selected. Subsequently, a human fetus kidney-derived cell line, 293 cells was transformed with a plasmid containing the cDNA, and the cells were collected 24 hours later. The collected cells were then disrupted in a phosphate buffer solution containing 5% glycerol (500 μL per 100 mm-dish of a phosphate buffer solution (pH 7.4, 200 mM) containing 5% glycerol) and centrifuged (16000 rpm, 5 min, 4° C.), and the supernatant was used as an enzyme source.
as §2

A further data set deals with 5α-reductase. The settings on record: patients with BPH; cited from earlier work.
The mark [2] stands for this setting: plasma, oral single dose 100 mg/kg, read-out: Conc (plasma).
[3] abbreviates: prostate, oral single dose 100 mg/kg, read-out: Conc (prostate).
[4] abbreviates: plasma, oral single dose 300 mg/kg, read-out: Conc (plasma).
[5] abbreviates: prostate, oral single dose 300 mg/kg, read-out: Conc (prostate).

The IC50 is the midpoint of a concentration-inhibition curve. Read a low IC50 as inhibition by little substance. Regarding `O=C(O)c1cn(S(=O)(=O)c2ccccc2)c2ccc(F)cc12` [Example 175], the concentration at 2 h in data set [1] (setting [2]) was determined as 83.8 µM; in data set [1] (setting [3]), 8.6 µM. In addition, the half-inhibitory concentration (IC50) amounted to 120 nM on human 17βHSD type 5 and 8900 nM at human 17βHSD type 3.
In the case of `Cc1ccc(S(=O)(=O)n2cc(C(=O)O)c3ccccc32)cc1` [Example 138], the half-inhibitory concentration (IC50) was 330 nM on human 17βHSD type 5 and > 10000 nM against human 17βHSD type 3.
Regarding `COc1ccc(S(=O)(=O)n2cc(C(=O)O)c3ccccc32)cc1` [Example 133, 1-[(4-methoxyphenyl)sulfonyl]-1H-indole-3-carboxylic acid], the IC50 was 3100 nM at human 17βHSD type 5 and > 10000 nM against human 17βHSD type 3.
Regarding `O=C(O)c1cn(S(=O)(=O)c2ccccc2)c2c(F)cccc12` [Example 187], the results for the concentration at 2 h in data set [1] (setting [2]) and in data set [1] (setting [3]) were 69.7 µM and 12.2 µM, respectively. Also, the IC50 against human 17βHSD type 5 is 2200 nM; against human 17βHSD type 3, > 10000 nM.
With `O=C(O)c1c(Cl)n(Cc2ccc(Cl)cc2Cl)c2ccccc12` [(2), reference compound], the IC50 on human 17βHSD type 5 was > 10000 nM. The “17βHSD type 5 inhibitory activity (in words)” value at human 17βHSD type 5 (summary of Table 51) is “scarcely exhibited 17βHSD type 5 inhibitory activity”.
On to `O=C(O)c1cn(S(=O)(=O)c2ccc(Br)cc2)c2ccccc12` [Example 144], for which the concentration at 2 h in data set [1] (setting [2]) is 38.5 µM; in data set [1] (setting [4]), 79.1 µM; in data set [1] (setting [3]), 7.2 µM; in data set [1] (setting [5]), 24.8 µM. In addition, the 50% inhibitory concentration (IC50) on human 17βHSD type 5 is 90 nM; at human 17βHSD type 3, > 10000 nM.
For the compound `O=C(O)c1c(Cl)n(Cc2ccc(Cl)cc2)c2ccccc12` [(1), reference compound], at human 17βHSD type 5, the half-inhibitory concentration (IC50) was > 10000 nM.
For `O=C(O)c1cn(S(=O)(=O)c2ccc(Br)cc2)c2cc3c(cc12)OCO3` [Example 203], the results for the half-maximal inhibitory concentration (IC50) against human 17βHSD type 5 and against human 17βHSD type 3 were 2000 nM and > 10000 nM, respectively.
`O=C(O)c1cn(S(=O)(=O)c2ccccc2)c2c(Cl)cccc12` [Example 191]: the IC50 was 300 nM on human 17βHSD type 5 and > 10000 nM at human 17βHSD type 3.
Consider `O=C(O)c1cn(S(=O)(=O)c2ccccc2)c2ccc(Cl)cc12` [Example 190], for which the values for the concentration at 2 h in data set [1] (setting [4]) and in data set [1] (setting [5]) were 226 µM and 37.4 µM, respectively. In addition, the IC50 against human 17βHSD type 5 was 690 nM; at human 17βHSD type 3, > 10000 nM.
Regarding `O=C(O)c1cn(S(=O)(=O)c2ccccc2)c2ccccc12` [Example 1, 1-(phenylsulfonyl)-1H-indole-3-carboxylic acid], the concentration at 2 h in data set [1] (plasma, oral single dose 30 mg/kg, read-out: Conc (plasma)) was determined as 17 µM; in data set [1] (setting [2]) it was 57.4 µM; in data set [1] (setting [4]), 145 µM; in data set [1] (prostate, oral single dose 30 mg/kg, read-out: Conc (prostate)), 5.3 µM; in data set [1] (setting [3]) it was 13.3 µM; in data set [1] (setting [5]) it was 47.4 µM.
Take `Cc1ccc2c(c1)c(C(=O)O)cn2S(=O)(=O)c1ccccc1` [Example 163]: the figures for the concentration at 2 h in data set [1] (setting [2]) and in data set [1] (setting [3]) were 88.8 µM and 19.1 µM, respectively. Besides, the concentration for half-maximal inhibition (IC50) against human 17βHSD type 5 was 220 nM; at human 17βHSD type 3, > 10000 nM.
Turning to `COc1cccc2c1c(C(=O)O)cn2S(=O)(=O)c1ccccc1` [Example 155], the concentration at 2 h is 88.4 µM in data set [1] (setting [2]) and 23 µM in data set [1] (setting [3]). In addition, the half-maximal inhibitory concentration (IC50) against human 17βHSD type 5 was 5500 nM; against human 17βHSD type 3, > 10000 nM.
As for `CC(C)c1ccc(S(=O)(=O)n2cc(C(=O)O)c3cccc(Cl)c32)cc1` [Example 193], the IC50 is 130 nM on human 17βHSD type 5 and > 10000 nM at human 17βHSD type 3.
Regarding `CC(C)(C)NC(=O)[C@H]1CC[C@H]2[C@@H]3CC[C@H]4NC(=O)C=C[C@]4(C)[C@H]3CC[C@]12C` [finasteride], in the data set on 5α-reductase, the “concentration of DHT in the prostate after administration, relative to the concentration before the administration” value is given as “about 20%” and the “increase of the concentration of testosterone in the prostate” value is recorded as 4 fold.
Consider `O=C(O)c1cn(S(=O)(=O)c2ccc(Br)cc2)c2c1CCCC2` [Example 208], for which the IC50 on human 17βHSD type 5 was 2200 nM; on human 17βHSD type 3, > 10000 nM.
In the case of `CCc1cccc2c(C(=O)O)cn(S(=O)(=O)c3ccccc3)c12` [Example 168], the half-maximal inhibitory concentration (IC50) was 85 nM against human 17βHSD type 5 and > 10000 nM on human 17βHSD type 3.
`O=C(O)c1cn(S(=O)(=O)c2ccc(Br)cc2)c2c(Cl)cccc12` [Example 192]: the concentration at 2 h in data set [1] (setting [2]) was 57.3 µM; in data set [1] (setting [4]), 126 µM; in data set [1] (setting [3]), 9.4 µM; in data set [1] (setting [5]), 24.9 µM. The figures for the IC50 against human 17βHSD type 5 and on human 17βHSD type 3 were 69 nM and > 10000 nM, respectively.
In the case of `Cc1cc(Br)ccc1S(=O)(=O)n1cc(C(=O)O)c2cccc(Cl)c21` [Example 194], the IC50 on human 17βHSD type 5 came to 190 nM; at human 17βHSD type 3, 6200 nM.

The values are drawn from patent US20110071146A1, “17BetaHSD Type 5 Inhibitor” (ASTELLAS PHARMA INC., priority 2006, published 2011).
